Measured values taken from paper PMC6009984, “Synthesis and biological evaluation of benzenesulphonamide-bearing 1,4,5-trisubstituted-1,2,3-triazoles possessing human carbonic anhydrase I, II, IV, and IX inhibitory activity” (Journal of Enzyme Inhibition and Medicinal Chemistry, 2017).

How the values were obtained:
hCA I = hCA I (Homo sapiens, UniProt P00915); experiment: stopped-flow CO2 hydrase assay, hCA I
hCA IV = hCA IV (Homo sapiens, UniProt P22748); experiment: stopped-flow CO2 hydrase assay, hCA IV
hCA II = hCA II (Homo sapiens, UniProt P00918); experiment: stopped-flow CO2 hydrase assay, hCA II; conditions: Ki (nM) hCA II, cytosolic isoform; mean from three different assays, stopped flow technique, errors ±5–10%
hCA IX = hCA IX (Homo sapiens, UniProt Q16790); experiment: stopped-flow CO2 hydrase assay, hCA IX

Sequence of hCA IV (P22748 19-312): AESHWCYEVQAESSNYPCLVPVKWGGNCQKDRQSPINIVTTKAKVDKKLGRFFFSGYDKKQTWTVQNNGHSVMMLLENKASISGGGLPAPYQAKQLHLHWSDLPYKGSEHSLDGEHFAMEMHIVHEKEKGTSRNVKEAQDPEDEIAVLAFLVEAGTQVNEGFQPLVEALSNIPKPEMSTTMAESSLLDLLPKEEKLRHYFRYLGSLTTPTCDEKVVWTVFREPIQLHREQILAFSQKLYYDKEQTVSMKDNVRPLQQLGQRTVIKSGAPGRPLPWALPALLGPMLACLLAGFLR
Sequence of hCA I (P00915 whole entry): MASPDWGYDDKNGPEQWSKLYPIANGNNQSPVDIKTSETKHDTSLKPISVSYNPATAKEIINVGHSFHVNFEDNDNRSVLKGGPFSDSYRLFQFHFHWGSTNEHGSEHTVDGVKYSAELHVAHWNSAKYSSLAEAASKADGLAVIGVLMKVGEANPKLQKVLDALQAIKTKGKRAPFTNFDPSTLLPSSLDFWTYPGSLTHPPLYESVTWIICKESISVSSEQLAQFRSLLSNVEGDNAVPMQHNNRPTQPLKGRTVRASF

Structure (SMILES) | Ki (hCA I) [nM] | Ki (hCA IV) [nM] | Ki (hCA II) [nM] | Ki (hCA IX) [nM] | melting point [°C]
CCOC(=O)c1nnn(-c2ccc(S(N)(=O)=O)cc2)c1C [Compound 4a, Ethyl 1-[4-(aminosulfonyl)phenyl]-5-methyl-1H-1,2,3-triazole-4-carboxylate] | 9.1 | 3.5 | 3.2 | 6.6 | 
CCOC(=O)c1nnn(-c2ccc(S(N)(=O)=O)cc2)c1-c1ccccc1 [Compound 4b, Ethyl 1-[4-(aminosulfonyl)phenyl]-5-phenyl-1H-1,2,3-triazole-4-carboxylate] | 246 | 5.1 | 6 | 9.5 | 184
CCOC(=O)c1nnn(-c2ccc(S(N)(=O)=O)cc2)c1-c1ccc(OC)cc1 [Compound 4c, Ethyl 1-[4-(aminosulfonyl)phenyl]-5-(4-methoxyphenyl)-1H-1,2,3-triazole-4-carboxylate] | 63 | 4.5 | 6.1 | 40 | 176
CCOC(=O)c1nnn(-c2ccc(S(N)(=O)=O)cc2)c1-c1ccc2ccccc2c1 [Compound 4d, Ethyl 1-[4-(aminosulfonyl)phenyl]-5-(2-naphthyl)-1H-1,2,3-triazole-4-carboxylate] | 68.2 | 5 | 5.8 | 7.1 | 180
Cc1c(C(=O)O)nnn1-c1ccc(S(N)(=O)=O)cc1 [Compound 5a, 1-[4-(Aminosulfonyl)phenyl]-5-methyl-1H-1,2,3-triazole-4-carboxylic acid] | 9.6 | 269 | 1.6 | 8.5 | 198
NS(=O)(=O)c1ccc(-n2nnc(C(=O)O)c2-c2ccccc2)cc1 [Compound 5b, 1-[4-(Aminosulfonyl)phenyl]-5-phenyl-1H-1,2,3-triazole-4-carboxylic acid] | 646 | 55.3 | 97.9 | 45.9 | 
COc1ccc(-c2c(C(=O)O)nnn2-c2ccc(S(N)(=O)=O)cc2)cc1 [Compound 5c, 1-[4-(Aminosulfonyl)phenyl]-5-(4-methoxyphenyl)-1H-1,2,3-triazole-4-carboxylic acid] | 489 | 2.4 | 9 | 42.3 | 148 to 150
NS(=O)(=O)c1ccc(-n2nnc(C(=O)O)c2-c2ccc3ccccc3c2)cc1 [Compound 5d, 1-[4-(Aminosulfonyl)phenyl]-5-(2-naphthyl)-1H-1,2,3-triazole-4-carboxylic acid] | 56.2 | 4.1 | 8.9 | 4.2 | 198 to 200
Cc1c(C(=O)NN)nnn1-c1ccc(S(N)(=O)=O)cc1 [Compound 7a, 4-[4-(Hydrazinocarbonyl)-5-methyl-1H-1,2,3-triazol-1-yl]benzenesulphonamide] | 15.1 | 228 | 7.6 | 9.3 | 

More lines, now with the values ahead:

Ki (hCA I) [nM] | Ki (hCA IV) [nM] | Ki (hCA II) [nM] | Ki (hCA IX) [nM] | melting point [°C] | Structure (SMILES)
8.3 | 212 | 1.9 | 9.5 | 314 to 316 | Cc1c(C(N)=O)nnn1-c1ccc(S(N)(=O)=O)cc1 [Compound 6a, 1-[4-(Aminosulfonyl)phenyl]-5-methyl-1H-1,2,3-triazole-4-carboxamide]
69.1 | 1.4 | 9.1 | 28.3 | 210 | NC(=O)c1nnn(-c2ccc(S(N)(=O)=O)cc2)c1-c1ccccc1 [Compound 6b, 1-[4-(Aminosulfonyl)phenyl]-5-phenyl-1H-1,2,3-triazole-4-carboxamide]
874 | 1.7 | 6.2 | 6.8 | 280 to 282 | COc1ccc(-c2c(C(N)=O)nnn2-c2ccc(S(N)(=O)=O)cc2)cc1 [Compound 6c, 1-[4-(Aminosulfonyl)phenyl]-5-(4-methoxyphenyl)-1H-1,2,3-triazole-4-carboxamide]
772 | 4 | 6 | 6.7 | 278 to 280 | NC(=O)c1nnn(-c2ccc(S(N)(=O)=O)cc2)c1-c1ccc2ccccc2c1 [Compound 6d, 1-[4-(Aminosulfonyl)phenyl]-5-(2-naphthyl)-1H-1,2,3-triazole-4-carboxamide]
73.7 | 22.7 | 38 | 26.1 | 206 | NNC(=O)c1nnn(-c2ccc(S(N)(=O)=O)cc2)c1-c1ccccc1 [Compound 7b, 4-[4-(Hydrazinocarbonyl)-5-phenyl-1H-1,2,3-triazol-1-yl]benzenesulphonamide]
91.2 | 4 | 5.6 | 8.1 | 170 to 172 | COc1ccc(-c2c(C(=O)NN)nnn2-c2ccc(S(N)(=O)=O)cc2)cc1 [Compound 7c, 4-[4-(Hydrazinocarbonyl)-5-(4-methoxyphenyl)-1H-1,2,3-triazol-1-yl]benzenesulphonamide]
82.5 | 2 | 1.6 | 7.2 | 156 | NNC(=O)c1nnn(-c2ccc(S(N)(=O)=O)cc2)c1-c1ccc2ccccc2c1 [Compound 7d, 4-[4-(Hydrazinocarbonyl)-5-(2-naphthyl)-1H-1,2,3-triazol-1-yl]benzenesulphonamide]
354 | 360 | 58.9 | 30.6 | 184 | Cc1c(CO)nnn1-c1ccc(S(N)(=O)=O)cc1 [Compound 8a, 4-(4-(Hydroxymethyl)-5-methyl-1H-1,2,3-triazol-1-yl)benzenesulphonamide]
78.9 | 8.4 | 9.4 | 58.7 | 174 to 176 | NS(=O)(=O)c1ccc(-n2nnc(CO)c2-c2ccccc2)cc1 [Compound 8b, 4-(4-(Hydroxymethyl)-5-phenyl-1H-1,2,3-triazol-1-yl)benzenesulphonamide]
812 | 1.9 | 4 | 5.8 | 180 to 182 | COc1ccc(-c2c(CO)nnn2-c2ccc(S(N)(=O)=O)cc2)cc1 [Compound 8c, 4-(4-(Hydroxymethyl)-5-(4-methoxyphenyl)-1H-1,2,3-triazol-1-yl)benzenesulphonamide]
214 | 1.9 | 8.1 | 7.8 | 212 to 214 | NS(=O)(=O)c1ccc(-n2nnc(CO)c2-c2ccc3ccccc3c2)cc1 [Compound 8d, 4-(4-(Hydroxymethyl)-5-(2-naphthyl)-1H-1,2,3-triazol-1-yl)benzenesulphonamide]
